US10517854B2, “Dosing regiments of celgosivir for the treatment of dengue” (60 Degrees Pharmaceuticals, LLC, priority 2013, dated 2019)
“And” between values parts separate entries of the source, which are not always exact repeats. Equal entries are not always repeated. “Also recorded” adds a separate entry of the source. Where two headings read alike, the source gives them in different places.

Key:
DENV1 = experiment: Cell-based flaviviral immunodetection assay (CFI), DENV1; details: Dengue virus, BHK-21; DENV1, BHK21 cells, 48 hours
DENV2 (TSV01 strain) = experiment: Cell-based flaviviral immunodetection assay (CFI), DENV2; details: Dengue virus, DENV2, BHK-21, 48 h, DENV2, BHK21 cells
Experimental: BHK21 cells were seeded at 1.3×104 in 96-well plate and incubated overnight at 37° C. in 5% CO2 incubator. Confluent monolayer of BHK21 cells were infected with DENV2 (TSV01 strain) at an MOI (multiplicity of infection) 0.3 in the presence of various concentrations of test compounds and incubated for 1 hour at 37° C. in 5% CO2 incubator. Infected cells were incubated with test compounds for another 48 hours at 37° C. in 5A CO2. Cells were fixed with methanol and mouse monoclonal antibody 4G2 was used to detect DENV E protein, which was quantified using a secondary anti-mouse antibody conjugated with horseradish peroxidase (HRP). Absorbance was read at 450 nm and dose-response curve was plotted accordingly. The 50% effective concentration (EC50), that is, the concentration of the test compound that decreased the level of viral E protein production by 50%, was calculated by nonlinear regression analysis.

[1] = set-up: tmax: unit not given here; details: cited from earlier work
[2] = humans, cited from earlier work
[3] = tested on: DENV2 strain NGC subgenomic replicon; experiment: Replicon assay (luciferase, A549 replicon cell line); type: cell-based; details: Dengue virus, A549 replicon cells, 48 hour
Experimental: The DENV subgenomic replicon was derived from the DENV2 strain NGC and consists of a luciferase reporter and a puromycin resistance gene for stable transfection. (7) Only the nonstructural proteins NS1, NS2A, NS2B, NS3, NS4A, NS4B, and NS5 were represented in the replicon construct. Of the nonstructural proteins, only NS1 is known to be glycosylated.
The stably transfected A549 replicon cell line was plated into a 96-well plate in the presence of various concentrations of test compounds and incubated for 48 hour at 37° C. in 5% CO2 incubator. The luciferase activity of the replicon treated with various concentrations of the test compound was measured using EnduRen (Promega) at a 1:1000 dilution followed by incubation for 2 hrs before the luminescence was read using a Tecan plate-reader. The data was plotted against the log transformation of the concentration of the compounds to obtain a dose-response curve to calculate the EC50 value.

DENV3 = experiment: Cell-based flaviviral immunodetection assay (CFI), DENV3; details: Dengue virus, BHK-21; DENV3, BHK21 cells, 48 hours
DENV4 = experiment: Cell-based flaviviral immunodetection assay (CFI), DENV4; details: Dengue virus, BHK-21; DENV4, BHK21 cells, 48 hours
[4] = tested on: gastrointestinal α-amylase, sucrase, maltase; details: cited from earlier work
EDEM, XBP1, CHOP = experiment: Host gene products during drug-induced unfolded protein response; type: cell-based; details: data not shown
Text: The pro-survival products enhance the clearance of misfolded proteins by directing them to the proteosome for degradation.

DENV2 [5] = details: cited from earlier work
DENV2 [6] = experiment: Lethal ADE mouse model of viremia; type: in vivo
Experimental: To model ADE, mice were injected IP (intraperitoneal) with […] of mouse monoclonal antibody against the (DENV) E protein (4G2 clone) one day prior to infection. (9) For treatment, celgosivir was injected IP once or twice daily for a total of 5 days. Mice were monitored every day till Day 12 post infection. The data were plotted as Kaplan-Meier curves using Prism 5.0 software.
To evaluate the effect of dose and dose schedule, four drug regimens were studied in the ADE viremia model: 10, 25 and 50 mg/kg BID and 100 mg/kg QD (once daily). For the BID schedule, survival increased with increasing dose with survival rates of 13%, 63% and 100% for 10, 25, and 50 mg/kg BID.
Even when treatment was delayed (FIG. 5A), celgosivir (50 mg/kg BID) exerted a protective effect. In this experiment, survival at Day 12 was 100%, 75%, and 50% when treatment was immediate, delayed 24 hr or delayed 48 hr after DENV2 infection, respectively, in the ADE model; by contrast, none (0%) of the sham-treated mice survived past day 5 (FIG. 5B). Viremia, as determined by plaque assay, in celgosivir-treated mice (50 mg/kg BID) was 8.3% of levels in sham-treated mice after only 1 day of dosing. By study day 3, viremia had increased in untreated mice by more than 7-fold.

[7] = Pharmacokinetics mouse studies; details: in vivo
Experimental: The concentration profile of celgosivir and castanospermine in the mouse after a single IP dose of celgosivir at a dose of 50 mg/kg is illustrated in FIG. 6A. Serum concentrations were measured using a validated LC/MS/MS assay performed. Celgosivir was measurable in serum only up to 1 hr post-dosing.
The castanospermine concentration profile after dosing at 50 mg/kg BID for 5 days was calculated by nonparametric superposition (FIG. 6B). This dosing regimen of celgosivir protected 100% of mice in the lethal ADE dengue infection model.

DENV1-4 = experiment: Inhibition of replication across dengue serotypes (CFI); type: cell-based; details: Dengue virus, DENV1 / DENV2, read-out: EC50 values for the other three serotypes
[8] = healthy rats, single dose 35 mg/kg PO

CCCC(=O)O[C@H]1CN2CC[C@H](O)[C@@H]2[C@@H](O)[C@@H]1O.Cl [Celgosivir, celgosivir]
EC50 (DENV1): 650 ± 160 nM | EC50 (DENV2 (TSV01 strain)): 220 nM | mean Cmax in the portal vein ([1]; 400 mg/kg celgosivir PO): 1900 ng/mL | AUC [1, 8]: 10.5 | Cmax [1, 8]: 8760 ± 1150 ng/mL | tmax [1, 8]: 0.44±0.01 | AUC 0-60 min ([1]; portal vein, 400 mg/kg celgosivir PO): 1000 ng·h/mL | Oral bioavailability ([1]; rat): 93% | half-life ([1]; rat): 2.7 h | oral clearance (CL/F) ([1]; rat): 41.7 mL/min/kg | maximum tolerated dose (MTD) ([2]; HIV drug trials, for 184 days): 400 mg per day | adverse events [2]: largely gastrointestinal, namely flatulence and diarrhea, of mild to moderate intensity | serious adverse events [2]: No serious adverse events have been reported | serum creatine kinase [2]: Asymptomatic elevations | time to reversal of creatine kinase elevations after discontinuation [2]: ≤ 2 weeks | EC50 [3]: 2200 nM | EC50 (DENV3): 680 ± 20 nM | EC50 (DENV4): 310 ± 120 nM | inhibition of gastrointestinal enzymes, comparison [4]: weaker inhibitor than castanospermine | apoptotic markers such as CHOP (EDEM, XBP1, CHOP): down-regulated | pro-survival host gene products such as EDEM and XBP1 (EDEM, XBP1, CHOP): upregulation | reduction of viremia (DENV2 [5]; given at the time of infection): 88% | reduction of viremia (DENV2 [5]; treatment delayed by 24 hours): 55% | survival at Day 12 (DENV2 [6]; 10 mg/kg BID for 5 days): 12% and 13% | survival at Day 12 (DENV2 [6]; 25 mg/kg BID for 5 days): 62% and 63% | survival at Day 12 (DENV2 [6]; 50 mg/kg BID for 5 days, immediate treatment): 100% | viremia, of levels in sham-treated mice (DENV2 [6]; 50 mg/kg BID, after 1 day of dosing, plaque assay): 8.3% | viremia, of levels in sham-treated mice (DENV2 [6]; 50 mg/kg BID, study day 3, delayed 24 hr): 26% | viremia, of levels in sham-treated mice (DENV2 [6]; 50 mg/kg BID, study day 3, delayed 48 hr): 69% | viremia, of levels in sham-treated mice (DENV2 [6]; 50 mg/kg BID, study day 3, immediate treatment): 17% | survival at Day 12 (DENV2 [6]; 50 mg/kg BID, treatment delayed 24 hr): 75% | survival at Day 12 (DENV2 [6]; 50 mg/kg BID, treatment delayed 48 hr): 50% | survival (in words) (DENV2 [6]; 100 mg/kg once daily (QD)): no mice survived past day 6; also recorded: none surviving past Day 6 | survival at Day 12 (DENV2 [6]; 100 mg/kg once daily (QD)): 0% | absorption compared with castanospermine [7]: more rapidly and efficiently absorbed than castanospermine | species detected in plasma after celgosivir [7]: only castanospermine was detected in the plasma | time celgosivir measurable in serum post-dosing ([7]; ip, 50 mg/kg): up to 1 hr | EC50 (DENV1-4): 310 to 650 nM
